Measurements from BindingDB's records for patent US20230339882 (Betta Pharmaceuticals, 2023).

How the values were obtained:
[1] = molecular target: T1, Tyrosine-protein phosphatase non-receptor type 11 (Homo sapiens, UniProt Q06124); assay: SHP2 Allosteric Inhibitory Enzyme Activity Assay
T1 sequence (Q06124 whole entry): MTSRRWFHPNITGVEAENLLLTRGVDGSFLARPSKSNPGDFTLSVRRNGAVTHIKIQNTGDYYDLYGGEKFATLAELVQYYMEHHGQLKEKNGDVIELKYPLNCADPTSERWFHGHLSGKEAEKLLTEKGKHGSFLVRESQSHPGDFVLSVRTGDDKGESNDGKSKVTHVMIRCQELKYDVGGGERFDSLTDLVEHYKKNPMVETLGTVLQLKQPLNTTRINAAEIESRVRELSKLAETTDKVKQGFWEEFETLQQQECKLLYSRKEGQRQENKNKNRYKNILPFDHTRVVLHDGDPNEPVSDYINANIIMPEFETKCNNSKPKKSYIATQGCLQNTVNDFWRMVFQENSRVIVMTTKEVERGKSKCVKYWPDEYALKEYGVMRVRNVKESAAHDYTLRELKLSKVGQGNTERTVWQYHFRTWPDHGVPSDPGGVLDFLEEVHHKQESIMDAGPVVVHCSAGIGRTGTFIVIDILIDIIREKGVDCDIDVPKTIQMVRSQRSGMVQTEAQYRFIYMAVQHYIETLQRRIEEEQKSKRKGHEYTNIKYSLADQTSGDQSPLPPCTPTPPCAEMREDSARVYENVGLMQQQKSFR
From the text: SHP2 is allosterically activated by binding of a bis-tyrosyl-phosphorylated peptide to its Src homology 2 (SH2) domain. This later activation step results in the release of the autoinhibitory interface of SHP2, which in turn activates the SHP2 protein tyrosine phosphatase (PTP) and is available for substrate recognition and reaction catalysis. The catalytic activity of SHP2 was monitored using the surrogate DiFMUP in a rapid fluorescence assay format.[0511]experiment procedure:(1) Compound preparation:The compounds of the present invention (10 mM stock solution) were diluted to appropriate times with 100% DMSO, and the final test concentrations of the compounds of the present invention were 10 µM, 3.3333 µM, 1.1111 µM, 0.3704 µM, 0.1235 µM, 0.0412 µM, 0.0137 µM, 0.0046 µM, 0.0015 µM, 0.00 µM;(2) Prepare the enzyme reaction working solution:Perform SHP2 enzymatic assays in 96-well black polystyrene plates (flat bottom, low flange, non-binding surface) (Perki Elmer, Cat#6005270) at room temperature using a final reaction volume of 50 µL and the following assay buffer conditions: 60 mM HEPES, 75 mM NaCl, 75 mM KCl, 0.05% BRIJ-35, 1 mM EDTA, 5 mM DTT.(3) Enzyme-catalyzed reaction and data monitoring:Add the compound of the present invention to the corresponding 96-well plate, and set the blank test well without compound and enzyme only with buffer. Thaw SHP2 Activating Peptide (IRS1_pY1172(dPEG8)pY1222) on ice, add 25 µM to each well, then add 0.2 ng of SHP2 protein sample to the corresponding well plate and incubate at room temperature for 1 hour. The surrogate substrate DiFMUP (Invitrogen, Cat #D6567) was added to the reaction and allowed to react for 1 hour at room temperature. Fluorescence signals were monitored using a microplate reader (Envision, Perki Elmer) using excitation and emission wavelengths of 340 nm and […], respectively.(4) Data analysis:Calculation Formula:Suppression rate %=1-Conversion_sample-Conversion_min/Conversion_max-Conversion_min×100%

[2] = molecular target: Potassium voltage-gated channel subfamily H member 2 (Homo sapiens, UniProt Q12809); assay: Electrophysiological Stimulation Protocol
From the text: Measure the peak tail current.

Sequence of Potassium voltage-gated channel subfamily H member 2 (Q12809 whole entry): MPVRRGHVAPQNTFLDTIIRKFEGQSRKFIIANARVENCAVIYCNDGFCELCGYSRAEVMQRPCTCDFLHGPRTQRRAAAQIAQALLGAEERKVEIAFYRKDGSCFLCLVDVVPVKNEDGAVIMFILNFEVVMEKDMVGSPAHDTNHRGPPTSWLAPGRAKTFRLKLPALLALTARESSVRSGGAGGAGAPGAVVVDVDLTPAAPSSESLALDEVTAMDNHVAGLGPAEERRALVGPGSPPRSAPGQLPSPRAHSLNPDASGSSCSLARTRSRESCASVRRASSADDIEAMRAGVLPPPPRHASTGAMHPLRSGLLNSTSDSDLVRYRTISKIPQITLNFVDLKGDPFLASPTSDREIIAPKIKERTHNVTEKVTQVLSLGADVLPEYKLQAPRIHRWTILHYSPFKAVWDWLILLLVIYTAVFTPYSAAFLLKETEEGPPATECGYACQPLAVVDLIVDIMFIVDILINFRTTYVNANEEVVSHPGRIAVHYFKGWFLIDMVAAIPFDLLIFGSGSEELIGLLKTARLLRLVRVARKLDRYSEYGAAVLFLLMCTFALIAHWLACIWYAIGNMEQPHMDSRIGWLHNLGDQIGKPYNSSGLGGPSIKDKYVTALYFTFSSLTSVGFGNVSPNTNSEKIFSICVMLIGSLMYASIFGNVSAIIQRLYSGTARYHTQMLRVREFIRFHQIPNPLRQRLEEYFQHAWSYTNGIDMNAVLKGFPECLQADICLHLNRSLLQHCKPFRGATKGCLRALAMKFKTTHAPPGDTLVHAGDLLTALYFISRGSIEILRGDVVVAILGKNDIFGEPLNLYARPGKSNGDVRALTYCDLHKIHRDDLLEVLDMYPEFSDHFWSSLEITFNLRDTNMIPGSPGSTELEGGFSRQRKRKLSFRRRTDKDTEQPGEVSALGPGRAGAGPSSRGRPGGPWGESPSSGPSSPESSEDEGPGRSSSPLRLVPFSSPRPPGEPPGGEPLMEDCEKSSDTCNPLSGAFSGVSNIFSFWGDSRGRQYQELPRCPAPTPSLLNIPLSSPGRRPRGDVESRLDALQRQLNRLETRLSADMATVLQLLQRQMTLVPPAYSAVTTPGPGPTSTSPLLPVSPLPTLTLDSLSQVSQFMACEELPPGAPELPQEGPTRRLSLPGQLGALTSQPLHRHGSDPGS

IC50 [1] [nM] | IC50 [2] [nM] | Compound
7.2 |  | CN(C)C(=O)c1cccc(OCC#Cc2cnc(N3CCC4(CC3)Cc3ccccc3[C@H]4N)c(CO)n2)c1 [US20230339882, Example A36]
 | > 20000 | CC(O)c1ccc(OCC#Cc2cnc(N3CCC4(CC3)Cc3ccccc3[C@H]4N)c(CO)n2)cc1 (stereo not given in full) [US20230339882, Example A71]
1 |  | N#Cc1ccc(OCC#Cc2cnc(N3CCC4(CC3)Cc3ccccc3[C@H]4N)c(CO)n2)cc1 [US20230339882, Example A12]
2.4 |  | CC(=O)c1cccc(OCC#Cc2cnc(N3CCC4(CC3)Cc3ccccc3[C@H]4N)c(CO)n2)c1 [US20230339882, Example A16]
2.2 |  | CNC(=O)c1cccc(OCC#Cc2cnc(N3CCC4(CC3)Cc3ccccc3[C@H]4N)c(CO)n2)c1 [US20230339882, Example A35]
11 |  | N[C@@H]1c2ccccc2CC12CCN(c1ncc(C#CCOc3cccc(OC(F)(F)F)c3)nc1CO)CC2 [US20230339882, Example A15]
2.6 |  | CNC(=O)c1ccc(OCC#Cc2cnc(N3CCC4(CC3)Cc3ccccc3[C@H]4N)c(CO)n2)cc1 [US20230339882, Example A72]

Continued, molecule first:

Compound | IC50 [1] [nM] | IC50 [2] [nM]
N[C@@H]1c2ccccc2CC12CCN(c1ncc(C#CCOc3cccc(Cl)c3F)nc1CO)CC2 [US20230339882, Example A05] | 4.9 | 
CC(=O)Nc1cccc(OCC#Cc2cnc(N3CCC4(CC3)Cc3ccccc3[C@H]4N)n(C)c2=O)c1 [US20230339882, Example A34] | 5.3 | 
N[C@@H]1c2ccccc2CC12CCN(c1ncc(C#CCOc3ccc4[nH]ncc4c3)nc1CO)CC2 [US20230339882, Example A67] | 3.1 | 
N[C@@H]1c2ccccc2CC12CCN(c1ncc(C#CCOc3ccc4c(c3)NC(=O)C4)nc1CO)CC2 [US20230339882, Example A25] | 1.7 | 
N[C@@H]1c2ccccc2CC12CCN(c1ncc(C#CCOc3ccc(C(F)(F)F)nc3)nc1CO)CC2 [US20230339882, Example A63] | 2.6 | 
COc1ccccc1OCC#Cc1cnc(N2CCC3(CC2)Cc2ccccc2[C@H]3N)c(CO)n1 [US20230339882, Example A10] | 3.7 | 
N[C@@H]1c2ccccc2CC12CCN(c1ncc(C#CCOc3ccc4ccc(=O)[nH]c4c3)nc1CO)CC2 [US20230339882, Example A24] | 2.4 | 
N[C@@H]1c2ccccc2CC12CCN(c1ncc(C#CCNc3ccc4c(c3)NC(=O)CC4)nc1CO)CC2 [US20230339882, Example A64] | 2.6 | 
